We go through one compound from patent US10544075B2 (OREGON HEALTH & SCIENCE UNIVERSITY, priority 2016, dated 2020).

Series [1] can be described thus: Single time-point drug distribution of parent drugs from amides in brain and serum. The note with it: equimolar systemic dose of 3.05 μmol/kg, 1 hour, brain. Type of series: in vivo, C57Bl/6 mice. The method, then: Wild type male C57Bl/6 mice, aged 8-10 weeks, were housed in a climate-controlled room with a 12 hour light-dark cycle with ad libitum access to food and water. To compare the single time-point drug distribution of JD-20 with JD-20 generated from the amide MA-JD20, and JD-21 with JD-21 generated from the amide MA-JD-21, the concentrations of the parent drugs were analyzed in brain and serum of mice by administering a dose of 3.05 μmol/kg (three mice per dose) with JD-20, JD-21, MA-JD20 and MA-JD21 both intraperitoneally and orally. The compounds were dissolved in a mixture of 50:50 DMSO and 0.9% sodium chloride bacteriostatic solution. Oral gavage was performed with the use of plastic feeding tubes (20 ga×38 mm, Instech Laboratories Inc., PA, USA) connected to […] insulin syringes (Covidien LLC MA, USA). In both experiments, the mice were euthanized after 1 hour following drug administration.
The tissues were processed as follows: The brains were collected in previously weighed homogenizer tubes with 3 Gold Spec ⅛ chrome steel balls (Applied Industrial Technologies) and immediately frozen at −80° C. The blood samples were kept on ice for 30 mins and then spun down at 5400×G at 4° C. for 15 min. […]
The serum samples were warmed to room temperature. […] The serum samples thus prepared were submitted for LC-MS/MS analysis to quantify the amount of free JD-20 or JD-21. […]

Series [2] can be described thus: 24 h time-course study after oral dose of MA-JD20. The series is classed as in vivo, mice. The note with it: oral MA-JD20, JD-20 measured. The method, then: As a follow-up of the single time point study, a 24 h time course study through oral gavage was performed for the amides, MA-JD20 and MA-JD21, and the corresponding JD-20 or JD-21 concentrations were measured in brain and blood of mice. Pharmacokinetic time-course curves were generated from these analyses and area under the curve (AUC) values for brain and blood were obtained.
Following the single time point drug distribution evaluation, to further understand the pharmacokinetic properties of the amide, a 24 h time-course study was conducted by administering an oral dose of […] of MA-JD20 to mice. The JD-20 concentrations generated in brain and blood were analyzed and area under the curve (AUC) values for brain and serum were obtained (FIG. 7). The AUCbrain/AUCserum ratio for amide MA-JD-20 is observed to be 0.89. […] The results obtained from the single point drug distribution were confirmed by the AUC analyses.

Another series deals with Human FAAH (Homo sapiens (Human), UniProt O00519). Nature of the series: FAAH activity in cell homogenate. Type of series: biochemical. The method, then: COS-7 cells (ATCC CRL-1651) were cultured in Dulbecco's Modified Eagle's Medium supplemented with 10% FBS, penicillin ([…]), and streptomycin ([…]). Cells (800,000/well) were seeded into 6-well plates (Falcon 353046) and left to adhere overnight. Cells were transfected with pcDNA4-FAAH-FLAG with Lipofectamine 2000 (Invitrogen) according to the manufacturer's protocol. Mock transfection controls were done with transfection reagent and no DNA. Cells were washed 4-days post transfection with cold PBS and scraped into TE buffer (125 mM Tris, 1 mM EDTA, pH 9) and sonicated (10 sec, 60 Sonic Dismembrator, Fisher). Cell homogenates were stored at −80° C. and protein concentrations were determined by BCA (Pierce). Cell homogenates were diluted into TE buffer containing 0.1% fatty-acid free BSA (Alfa Aesar). Substrates were added as 50× stocks in DMSO into 50 μL aliquots of homogenate to a final concentration of 100 μM. Reactions were performed with homogenate protein at 31.25 μg/mL for 15 min at 37° C. Reactions were quenched with 100 μL acetonitrile and vortexed for 20 s. Samples were clarified by centrifuge (10,000 rpm, 15 min, 4° C.). The supernatant is diluted 50-fold into 2:1 MeCN:H2O containing 300 nM d11-arachindonic acid and 30 nM d6-sobetirome. Samples were centrifuged again (13,200 rpm, 15 min, 4° C.). Products were quantified by LC/MS-MS with standard curves generated from mock samples. Observed rates are expressed as nmol product per mg protein homogenate per min.
FAAH was overexpressed in COS-7 cells as described above and cell homogenate was used to measure observed rates of substrate cleavage compared with the classic endogenous FAAH substrate anandamide (AEA). Substrate were all tested at 100 μM. Compared to AEA, the thyromimetic amides MA-GC 1 (9-fold), MA-JD20 (31-fold), and MA-JD21 (20-fold) show decreased rates. […] Observed rates are expressed as nmol product per mg homogenate protein per min.

Sequence of Human FAAH (O00519 whole entry): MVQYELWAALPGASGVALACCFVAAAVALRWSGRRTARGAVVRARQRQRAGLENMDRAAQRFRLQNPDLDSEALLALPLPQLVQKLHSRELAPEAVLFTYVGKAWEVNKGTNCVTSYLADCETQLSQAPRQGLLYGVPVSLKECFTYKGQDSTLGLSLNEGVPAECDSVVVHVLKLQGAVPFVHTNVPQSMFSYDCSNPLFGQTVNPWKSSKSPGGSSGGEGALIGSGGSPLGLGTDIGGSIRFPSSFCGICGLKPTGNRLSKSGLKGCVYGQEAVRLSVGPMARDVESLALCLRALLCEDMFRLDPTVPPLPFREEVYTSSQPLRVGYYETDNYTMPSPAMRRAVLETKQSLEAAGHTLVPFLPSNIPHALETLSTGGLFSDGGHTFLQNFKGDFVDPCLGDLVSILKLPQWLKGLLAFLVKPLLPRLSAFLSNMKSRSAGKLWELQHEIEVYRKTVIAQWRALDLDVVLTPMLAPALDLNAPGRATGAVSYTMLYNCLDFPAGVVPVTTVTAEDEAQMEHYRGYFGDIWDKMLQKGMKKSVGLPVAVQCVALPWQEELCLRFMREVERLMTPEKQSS

On to `CNC(=O)COc1cc(Br)c(Cc2ccc(O)c(C(C)C)c2)c(Br)c1` [MA-JD20, 2-(3,5-dibromo-4-(4-hydroxy-3-isopropylbenzyl)phenoxy)-N-methylacetamide], for which the “parent drug delivered to the CNS compared to unmodified JD-20 or JD-21” value in series [1] is “delivers more of the parent drugs to the CNS”. Moreover, the “Cmax and Tmax time in the brain tissue” value in series [2] is “around 2 h”. In addition, the FAAH substrate result on Human FAAH (100 μM, COS-7 cell homogenate) was “substrates for fatty-acid amide hydrolase (FAAH)”. Further, the “decreased observed rate of substrate cleavage compared to AEA” value on Human FAAH (substrate 100 μM, FAAH overexpressed in COS-7 cell homogenate) stood at 31 fold.
